ChEMBL document CHEMBL2073928, “Overlapping substrate specificities and tissue distribution of cytochrome P450 3A and P-glycoprotein: implications for drug delivery and activity in cancer chemotherapy” (Mol Carcinog, 1995)

Assays:
Assay type in all cases: functional, organism-based
[1] = target: Multidrug resistance protein 1a (Rattus norvegicus) (UniProt Q6PSM0); assay: (§1) TP_TRANSPORTER: RT-PCR in vivo Wistar rat, liver
[2] = target: ATP-dependent translocase ABCB1 (Rattus norvegicus, UniProt P43245); assay: as §1
Chain of ATP-dependent translocase ABCB1 (P43245 whole entry): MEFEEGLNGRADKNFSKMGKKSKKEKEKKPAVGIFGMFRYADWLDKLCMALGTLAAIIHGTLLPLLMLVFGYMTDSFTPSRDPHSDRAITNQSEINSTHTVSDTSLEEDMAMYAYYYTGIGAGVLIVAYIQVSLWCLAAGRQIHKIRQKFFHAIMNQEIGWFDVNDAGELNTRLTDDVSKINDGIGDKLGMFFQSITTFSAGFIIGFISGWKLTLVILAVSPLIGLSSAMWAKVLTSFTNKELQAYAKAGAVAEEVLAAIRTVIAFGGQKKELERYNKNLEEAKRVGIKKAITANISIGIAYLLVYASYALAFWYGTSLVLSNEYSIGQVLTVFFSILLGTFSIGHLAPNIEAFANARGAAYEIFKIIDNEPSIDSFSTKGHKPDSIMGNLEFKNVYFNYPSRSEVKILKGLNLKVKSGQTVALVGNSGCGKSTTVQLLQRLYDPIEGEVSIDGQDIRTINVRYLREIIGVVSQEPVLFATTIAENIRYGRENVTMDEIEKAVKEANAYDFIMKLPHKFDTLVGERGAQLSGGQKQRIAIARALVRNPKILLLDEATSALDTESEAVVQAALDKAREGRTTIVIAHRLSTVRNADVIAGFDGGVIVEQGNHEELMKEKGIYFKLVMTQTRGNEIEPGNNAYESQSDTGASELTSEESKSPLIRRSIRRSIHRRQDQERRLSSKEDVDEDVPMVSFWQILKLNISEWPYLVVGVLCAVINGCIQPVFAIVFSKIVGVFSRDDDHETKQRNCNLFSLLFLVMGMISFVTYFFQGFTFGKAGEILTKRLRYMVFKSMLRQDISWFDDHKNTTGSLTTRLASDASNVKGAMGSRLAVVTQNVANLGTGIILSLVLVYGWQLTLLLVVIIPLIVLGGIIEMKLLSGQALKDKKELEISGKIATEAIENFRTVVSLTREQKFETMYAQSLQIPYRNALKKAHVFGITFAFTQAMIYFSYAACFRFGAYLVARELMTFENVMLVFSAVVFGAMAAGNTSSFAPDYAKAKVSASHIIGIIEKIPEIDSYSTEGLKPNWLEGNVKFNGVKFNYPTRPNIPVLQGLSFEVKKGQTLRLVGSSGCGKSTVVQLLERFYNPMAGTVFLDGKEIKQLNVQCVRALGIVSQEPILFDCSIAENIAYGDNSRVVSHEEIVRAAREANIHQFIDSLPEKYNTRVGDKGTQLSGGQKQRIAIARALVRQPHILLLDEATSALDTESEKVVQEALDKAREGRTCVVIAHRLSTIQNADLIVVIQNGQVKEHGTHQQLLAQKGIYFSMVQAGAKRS

[3] = target: Multidrug resistance protein 1a (Rattus norvegicus) (UniProt Q6PSM0); assay: TP_TRANSPORTER: Western in vivo Wistar rat, liver

Chain of Multidrug resistance protein 1a (Rattus norvegicus) (Q6PSM0 as listed by the source): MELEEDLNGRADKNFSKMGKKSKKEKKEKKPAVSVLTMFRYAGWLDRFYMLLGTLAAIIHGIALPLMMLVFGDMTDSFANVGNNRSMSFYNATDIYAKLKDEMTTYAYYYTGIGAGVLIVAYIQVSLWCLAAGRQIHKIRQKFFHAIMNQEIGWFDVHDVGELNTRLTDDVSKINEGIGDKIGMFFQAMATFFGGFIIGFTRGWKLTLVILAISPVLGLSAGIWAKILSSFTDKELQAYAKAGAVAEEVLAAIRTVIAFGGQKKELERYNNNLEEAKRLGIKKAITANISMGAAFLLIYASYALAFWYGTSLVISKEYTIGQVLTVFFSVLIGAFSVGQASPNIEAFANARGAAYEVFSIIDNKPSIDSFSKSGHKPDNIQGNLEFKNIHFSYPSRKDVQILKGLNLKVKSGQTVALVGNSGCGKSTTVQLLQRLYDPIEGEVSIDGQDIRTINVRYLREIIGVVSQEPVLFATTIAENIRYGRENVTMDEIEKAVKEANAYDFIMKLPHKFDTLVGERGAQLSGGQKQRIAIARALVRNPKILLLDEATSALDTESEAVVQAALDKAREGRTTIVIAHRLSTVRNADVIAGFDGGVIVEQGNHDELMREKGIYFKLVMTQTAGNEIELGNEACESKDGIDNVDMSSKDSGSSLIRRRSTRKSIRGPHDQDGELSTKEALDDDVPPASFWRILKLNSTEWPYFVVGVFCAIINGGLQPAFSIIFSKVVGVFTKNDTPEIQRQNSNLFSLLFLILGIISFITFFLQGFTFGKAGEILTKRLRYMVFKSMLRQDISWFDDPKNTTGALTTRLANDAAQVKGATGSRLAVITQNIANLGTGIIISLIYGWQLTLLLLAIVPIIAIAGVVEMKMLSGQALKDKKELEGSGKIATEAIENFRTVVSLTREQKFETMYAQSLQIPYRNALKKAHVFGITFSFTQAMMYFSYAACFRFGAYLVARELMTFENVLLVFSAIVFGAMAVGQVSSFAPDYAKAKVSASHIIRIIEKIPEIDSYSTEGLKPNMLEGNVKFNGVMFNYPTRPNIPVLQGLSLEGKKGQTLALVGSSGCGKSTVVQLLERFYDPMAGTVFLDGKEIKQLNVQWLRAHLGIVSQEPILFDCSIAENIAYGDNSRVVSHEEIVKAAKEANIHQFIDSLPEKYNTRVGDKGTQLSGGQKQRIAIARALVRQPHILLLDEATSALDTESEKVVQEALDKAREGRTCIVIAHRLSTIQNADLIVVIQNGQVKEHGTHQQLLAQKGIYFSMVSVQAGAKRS

**Q.** Which results are given for `CC(=O)Nc1ccc2c(c1)Cc1ccccc1-2` [2-ACETYLAMINOFLUORENE]?
**A.** Activity [1]: inducer [+]; Activity [2]: inducer [+]; Activity [3]: inducer [+]
